In patent publication US11912693B2, “Compounds for modulating S1P1 activity and methods of using the same” (TREVENA, INC., priority 2017, dated 2024):

Legend:
[1] = target: T1, human sphingosine-1-phosphate receptor 1 (S1P1) (Homo sapiens (Human), UniProt P21453); test: β-Arrestin2 recruitment assay (PathHunter), S1P1 CHO-K1 cells; format: cell-based; settings: for hS1P1 B-arrestin2 pEC50: β-arrestin2 recruitment, S1P1 CHO-K1 cells; for Emax: CHO-K1, efficacy (SPAN) normalized to fingolimod, read-out: hS1P1 B-arrestin2 SPAN
Summary of the method: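 Enzyme-fragment complementation read-out: agonist-driven β-arrestin2 binding to ProLink-tagged human S1P1 in stable CHO-K1 cells restores β-galactosidase, measured 1 h at room temperature after a 60 min 37° C. compound incubation. Potency as pEC50, efficacy relative to fingolimod (SPAN).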
Target sequence in this assay (P21453 whole entry, looked up, the tested form may be a part): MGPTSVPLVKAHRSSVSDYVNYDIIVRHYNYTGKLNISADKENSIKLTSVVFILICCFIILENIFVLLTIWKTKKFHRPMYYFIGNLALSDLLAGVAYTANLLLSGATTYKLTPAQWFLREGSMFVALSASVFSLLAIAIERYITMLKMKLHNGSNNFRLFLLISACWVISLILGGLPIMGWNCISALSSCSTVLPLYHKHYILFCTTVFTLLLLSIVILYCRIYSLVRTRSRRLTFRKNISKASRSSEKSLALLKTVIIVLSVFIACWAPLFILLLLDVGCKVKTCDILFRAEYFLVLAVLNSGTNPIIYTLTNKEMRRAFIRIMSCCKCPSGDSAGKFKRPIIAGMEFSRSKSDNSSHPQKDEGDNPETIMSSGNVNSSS
Target sequence in this assay (P32121 whole entry partner, looked up, the tested form may be a part): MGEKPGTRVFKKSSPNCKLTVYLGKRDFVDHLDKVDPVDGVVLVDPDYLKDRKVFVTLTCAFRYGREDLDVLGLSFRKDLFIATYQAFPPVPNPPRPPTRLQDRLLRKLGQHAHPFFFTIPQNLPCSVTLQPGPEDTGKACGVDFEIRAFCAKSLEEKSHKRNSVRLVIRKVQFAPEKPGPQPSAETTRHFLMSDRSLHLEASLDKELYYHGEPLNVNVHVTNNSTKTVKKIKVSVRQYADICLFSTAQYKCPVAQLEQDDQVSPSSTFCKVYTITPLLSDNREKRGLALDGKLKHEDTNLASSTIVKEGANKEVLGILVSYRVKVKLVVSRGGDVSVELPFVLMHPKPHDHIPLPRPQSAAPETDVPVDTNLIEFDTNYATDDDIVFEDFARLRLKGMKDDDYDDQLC

[2] = target: T1, human sphingosine-1-phosphate receptor 1 (S1P1); test: Inhibition of cAMP production (HTRF cAMP HiRange), S1P1 CHO-K1 cells; format: cell-based; settings: for hS1P1 cAMP pEC50: inhibition of cAMP production, S1P1 CHO-K1 cells; for Emax: CHO-K1, efficacy (SPAN) normalized to fingolimod, read-out: hS1P1 cAMP SPAN
Summary of the method: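 CHO-K1 cells stably co-expressing human S1P1 (C-terminal Prolink tag) and EA-β-arrestin2 were grown in AssayComplete Media 6 at 37° C. and 5% CO2, plated, and incubated overnight. Agonist-driven inhibition of intracellular cAMP was read by TR-FRET with the HTRF cAMP HiRange kit on a PheraStar reader. Potency is pEC50, and efficacy (SPAN) is normalized to fingolimod.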
Target sequence in this assay (P21453 whole entry, looked up, the tested form may be a part): as the sequence (P21453 whole entry, looked up, the tested form may be a part) above

Structure (SMILES) | hS1P1 B-arrestin2 pEC50 [1] | hS1P1 cAMP pEC50 [2] | Emax [1] | Emax [2]
Cn1cnc2ccc(-c3nnc(-c4ccc(NC(C)(C)CO)c(C#N)c4)o3)cc21 [Compound 634, 2-[(1-hydroxy-2-methylpropan-2-yl)amino]-5-[5-(1-methyl-1H-1,3-benzodiazol-6-yl)-1,3,4-oxadiazol-2-yl]benzonitrile] | <5 | <6.5 | – | –
COc1ccc(-c2nsc(-c3ccc4[nH]ccc4c3)n2)cc1 [Compound 363, 5-[3-(4-methoxyphenyl)-1,2,4-thiadiazol-5-yl]-1H-indole] | <5 | <6.5 | – | –
CC(C)n1ccc2cc(-c3nc(-c4ccccc4F)cs3)ccc21 [Compound 403, 4-(2-fluorophenyl)-2-(1-isopropylindol-5-yl)thiazole] | <5 | <6.5 | < 75% | < 75%
CC(C)n1ccc2cc(-c3nc(-c4ccccc4C(F)(F)F)cs3)ccc21 [Compound 404, 2-(1-isopropylindol-5-yl)-4-[2-(trifluoromethyl)phenyl]thiazole] | <5 | <6.5 | < 75% | > 75%
Cc1cccc(-c2noc(-c3ccc4c(c3)nnn4C3CCCCC3)n2)c1 [Compound 11, 1-cyclohexyl-5-[3-(3-methylphenyl)-1,2,4-oxadiazol-5-yl]-1H-1,2,3-benzotriazole] | <5 | <6.5 | – | –
O=C1c2cc(-c3nc(-c4cccnc4)no3)ccc2OC(CO)(CO)C1Br (stereo not drawn) [Compound 479, 3-bromo-2,2-bis(hydroxymethyl)-6-[3-(pyridin-3-yl)-1,2,4-oxadiazol-5-yl]-3,4-dihydro-2H-1-benzopyran-4-one] | <5 | <6.5 | – | –
CCC1(CC)CC(=O)c2cc(-c3ncc(-c4ccncc4)cn3)ccc2O1 [Compound 510, 2,2-diethyl-6-(5-(pyridin-4-yl)pyrimidin-2-yl)chroman-4-one] | >5 | >6.5 | – | –
CC(C)C(c1ccccc1)c1noc(-c2ccc3c(c2)nnn3C(C)C)n1 (stereo not drawn) [Compound 56, 5-[3-(2-methyl-1-phenylpropyl)-1,2,4-oxadiazol-5-yl]-1-(propan-2-yl)-1H-1,2,3-benzotriazole] | <5 | <6.5 | – | –
Clc1ccc(-c2noc(-c3ccc4c(c3)nnn4C3CCOCC3)n2)s1 [Compound 82, 5-[3-(5-chlorothiophen-2-yl)-1,2,4-oxadiazol-5-yl]-1-(oxan-4-yl)-1H-1,2,3-benzotriazole] | <5 | <6.5 | < 75% | < 75%
COc1ccccc1-c1nc(-c2ccc3c(ccn3C(C)C)c2)ns1 [Compound 375, 5-[5-(2-methoxyphenyl)-1,2,4-thiadiazol-3-yl]-1-(propan-2-yl)-1H-indole] | >5 | >6.5 | – | –
Cc1ccccc1-c1cnc(-c2ccc3c(c2)nnn3C(C)C)s1 [Compound 216, 2-(1-isopropylbenzotriazol-5-yl)-5-(o-tolyl)thiazole] | <5 | <6.5 | < 75% | < 75%
CCC1(CC)CC(=O)c2cc(-c3ncc(-c4ccccn4)cn3)ccc2O1 [Compound 530, 2,2-diethyl-6-(5-(pyridin-2-yl)pyrimidin-2-yl)chroman-4-one] | <5 | <6.5 | – | –
Cc1ccc(-c2noc(-c3ccc4c(c3)nnn4C3CCCC3)n2)s1 [Compound 192, 1-cyclopentyl-5-[3-(5-methylthiophen-2-yl)-1,2,4-oxadiazol-5-yl]-1H-1,2,3-benzotriazole] | <5 | <6.5 | – | –
CCC1(CC)CC(=O)c2cc(-c3nc(-c4ccc(OC)nc4)no3)ccc2O1 [Compound 301, 2,2-diethyl-6-[3-(6-methoxy-3-pyridyl)-1,2,4-oxadiazol-5-yl]chroman-4-one] | <5 | <6.5 | < 75% | < 75%
COc1ccc(-c2noc(-c3ccc4c(c3)nnn4C3CCCC3)n2)cc1C(F)(F)F [Compound 197, 1-cyclopentyl-5-{3-[4-methoxy-3-(trifluoromethyl)phenyl]-1,2,4-oxadiazol-5-yl}-1H-1,2,3-benzotriazole] | <5 | <6.5 | < 75% | < 75%
CCC1(CC)CC(=O)c2cc(-c3nc(-c4ccc(OC)cc4)no3)ccc2O1 [Compound 65, 2,2-diethyl-6-(3-(4-methoxyphenyl)-1,2,4-oxadiazol-5-yl)chroman-4-one] | <5 | <6.5 | < 75% | < 75%
CCC1(CC)CC(=O)c2cc(-c3nc(-c4ccnc(NC(C)=O)c4)no3)ccc2O1 [Compound 512, N-(4-(5-(2,2-diethyl-4-oxochroman-6-yl)-1,2,4-oxadiazol-3-yl)pyridin-2-yl)acetamide] | >5 | >6.5 | – | –
CC1CC(=O)c2ccc(-c3nc(-c4cccnc4)no3)cc2O1 (stereo not drawn) [Compound 535, 2-methyl-7-[3-(pyridin-3-yl)-1,2,4-oxadiazol-5-yl]-3,4-dihydro-2H-1-benzopyran-4-one] | >5 | <6.5 | – | –
CC(C)Cn1nnc2cc(-c3nc4c(Cl)cccc4o3)ccc21 [Compound 453, 4-chloro-2-(1-isobutyl-1H-benzo[d][1,2,3]triazol-5-yl)benzo[d]oxazole] | >5 | >6.5 | – | –
COc1cccc(-c2noc(-c3ccc4c(c3)nnn4C(C)C)n2)c1 [Compound 228, 5-(1-isopropyl-1H-benzo[d][1,2,3]triazol-5-yl)-3-(3-methoxyphenyl)-1,2,4-oxadiazole] | <5 | <6.5 | – | –
CC(C)n1ccc2cc(-c3nc(-c4ccccc4C(F)(F)F)cs3)cnc21 [Compound 408, 2-(1-isopropylpyrrolo[2,3-b]pyridin-5-yl)-4-[2-(trifluoromethyl)phenyl]thiazole] | <5 | <6.5 | – | –
COc1ccccc1-c1nsc(-c2ccc3c(c2)nnn3C(C)C)n1 [Compound 213, 5-[3-(2-methoxyphenyl)-1,2,4-thiadiazol-5-yl]-1-(propan-2-yl)-1H-1,2,3-benzotriazole] | <5 | <6.5 | – | –
Cc1cncc(-c2nc(-c3ccc4c(c3)nnn4C(C)C)no2)n1 [Compound 229, 3-(1-isopropyl-1H-benzo[d][1,2,3]triazol-5-yl)-5-(6-methylpyrazin-2-yl)-1,2,4-oxadiazole] | >5 | <6.5 | – | –
Cc1nc2cc(-c3nnc(-c4ccc(NCC(F)F)c(C#N)c4)o3)ccc2[nH]1 [Compound 561, 2-[(2,2-difluoroethyl)amino]-5-[5-(2-methyl-1H-1,3-benzodiazol-5-yl)-1,3,4-oxadiazol-2-yl]benzonitrile] | >5 | >6.5 | – | –
Cc1ccccc1-c1c[nH]c(-c2ccc3c(c2)nnn3C(C)C)c1 [Compound 516, 5-[4-(2-methylphenyl)-1H-pyrrol-2-yl]-1-(propan-2-yl)-1H-1,2,3-benzotriazole] | >5 | <6.5 | < 75% | < 75%
